# Source: PubChem BioAssay (NCI)
#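 Step 1: Grow cells in 96-well plates. Step 2: Expose to compound for 48 hours at 5 concentrations. Step 3: Interpolate endpoints linearly; if unreached, use highest concentration. TGI marks complete inhibition of growth.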
# Test system: CCRF-CEM leukemia
# Experiment: DTP human tumour cell line panel, 48 h
row,Structure (SMILES),TGI [µM]
1,C=CC(CCc1ccc(C(=O)OCC)cc1)c1c(N)nc(N)[nH]c1=O (configuration not stated),> 100
2,CCOP(C)(=O)C(N)Cc1ccc(OC)c(OC)c1 (configuration not stated),> 100

# Test system: HCT-116 colon
# Experiment: DTP human tumour cell line panel, 48 h
row,Structure (SMILES),TGI [µM]
1,NP(=O)(Oc1c2occc2cc2ccc(=O)oc12)N(CCCl)CCCl (configuration not stated),> 100
2,CCOC(=O)c1nc2ccc(C(F)(F)F)cc2nc1NCc1cc(OC)c(OC)c(OC)c1,> 100
3,CC(C)(C)OC(=O)NC(Cc1ccc(OCc2ccccc2)cn1)C(=O)N1CCCCC1 (configuration not stated),> 100
4,CCOC(=O)/C=C(/C(=O)OCC)n1ccc(=O)n(Cc2cn(COCCOC(C)=O)nn2)c1=O,80.8
5,O=C1CC(=Nc2ccc(Cl)cc2)C(c2ccccc2)N1c1ccccc1 (configuration not stated),65.1
6,C=CC(CCc1ccc(C(=O)OCC)cc1)c1c(N)nc(N)[nH]c1=O (configuration not stated),> 100
7,CCOP(C)(=O)C(N)Cc1ccc(OC)c(OC)c1 (configuration not stated),> 100

# Test system: SK-OV-3 ovarian
# Experiment: DTP human tumour cell line panel, 48 h
row,Structure (SMILES),TGI [µM]
1,CC(C)(C)OC(=O)NC(Cc1ccc(OCc2ccccc2)cn1)C(=O)N1CCCCC1 (configuration not stated),> 100
2,CCOC(=O)/C=C(/C(=O)OCC)n1ccc(=O)n(Cc2cn(COCCOC(C)=O)nn2)c1=O,> 100
3,O=C1CC(=Nc2ccc(Cl)cc2)C(c2ccccc2)N1c1ccccc1 (configuration not stated),51.6
4,C=CC(CCc1ccc(C(=O)OCC)cc1)c1c(N)nc(N)[nH]c1=O (configuration not stated),> 100
5,CCOP(C)(=O)C(N)Cc1ccc(OC)c(OC)c1 (configuration not stated),> 100

# Test system: MCF7 breast
# Experiment: DTP human tumour cell line panel, 48 h
row,Structure (SMILES),TGI [µM]
1,NP(=O)(Oc1c2occc2cc2ccc(=O)oc12)N(CCCl)CCCl (configuration not stated),> 100
2,CCOC(=O)c1nc2ccc(C(F)(F)F)cc2nc1NCc1cc(OC)c(OC)c(OC)c1,> 100
3,CC(C)(C)OC(=O)NC(Cc1ccc(OCc2ccccc2)cn1)C(=O)N1CCCCC1 (configuration not stated),> 100
4,CCOC(=O)/C=C(/C(=O)OCC)n1ccc(=O)n(Cc2cn(COCCOC(C)=O)nn2)c1=O,28.3
5,O=C1CC(=Nc2ccc(Cl)cc2)C(c2ccccc2)N1c1ccccc1 (configuration not stated),> 100
6,C=CC(CCc1ccc(C(=O)OCC)cc1)c1c(N)nc(N)[nH]c1=O (configuration not stated),> 100
7,CCOP(C)(=O)C(N)Cc1ccc(OC)c(OC)c1 (configuration not stated),> 100

# Test system: HS 578T breast
# Experiment: DTP human tumour cell line panel, 48 h
row,Structure (SMILES),TGI [µM]
1,NP(=O)(Oc1c2occc2cc2ccc(=O)oc12)N(CCCl)CCCl (configuration not stated),> 100
2,CCOC(=O)c1nc2ccc(C(F)(F)F)cc2nc1NCc1cc(OC)c(OC)c(OC)c1,> 100
3,CC(C)(C)OC(=O)NC(Cc1ccc(OCc2ccccc2)cn1)C(=O)N1CCCCC1 (configuration not stated),> 100
4,CCOC(=O)/C=C(/C(=O)OCC)n1ccc(=O)n(Cc2cn(COCCOC(C)=O)nn2)c1=O,70.9
5,O=C1CC(=Nc2ccc(Cl)cc2)C(c2ccccc2)N1c1ccccc1 (configuration not stated),26.6
6,C=CC(CCc1ccc(C(=O)OCC)cc1)c1c(N)nc(N)[nH]c1=O (configuration not stated),> 100
7,CCOP(C)(=O)C(N)Cc1ccc(OC)c(OC)c1 (configuration not stated),> 100

# Test system: SF-295 CNS
# Experiment: DTP human tumour cell line panel, 48 h
row,Structure (SMILES),TGI [µM]
1,NP(=O)(Oc1c2occc2cc2ccc(=O)oc12)N(CCCl)CCCl (configuration not stated),> 100
2,CCOC(=O)c1nc2ccc(C(F)(F)F)cc2nc1NCc1cc(OC)c(OC)c(OC)c1,> 100
3,CC(C)(C)OC(=O)NC(Cc1ccc(OCc2ccccc2)cn1)C(=O)N1CCCCC1 (configuration not stated),> 100
4,CCOC(=O)/C=C(/C(=O)OCC)n1ccc(=O)n(Cc2cn(COCCOC(C)=O)nn2)c1=O,> 100
5,O=C1CC(=Nc2ccc(Cl)cc2)C(c2ccccc2)N1c1ccccc1 (configuration not stated),> 100
6,C=CC(CCc1ccc(C(=O)OCC)cc1)c1c(N)nc(N)[nH]c1=O (configuration not stated),> 100
7,CCOP(C)(=O)C(N)Cc1ccc(OC)c(OC)c1 (configuration not stated),> 100

# Test system: OVCAR-3 ovarian
# Experiment: DTP human tumour cell line panel, 48 h
row,Structure (SMILES),TGI [µM]
1,NP(=O)(Oc1c2occc2cc2ccc(=O)oc12)N(CCCl)CCCl (configuration not stated),> 100
2,CCOC(=O)c1nc2ccc(C(F)(F)F)cc2nc1NCc1cc(OC)c(OC)c(OC)c1,> 100
3,CC(C)(C)OC(=O)NC(Cc1ccc(OCc2ccccc2)cn1)C(=O)N1CCCCC1 (configuration not stated),> 100
4,CCOC(=O)/C=C(/C(=O)OCC)n1ccc(=O)n(Cc2cn(COCCOC(C)=O)nn2)c1=O,33.4
5,O=C1CC(=Nc2ccc(Cl)cc2)C(c2ccccc2)N1c1ccccc1 (configuration not stated),14.5
6,C=CC(CCc1ccc(C(=O)OCC)cc1)c1c(N)nc(N)[nH]c1=O (configuration not stated),> 100
7,CCOP(C)(=O)C(N)Cc1ccc(OC)c(OC)c1 (configuration not stated),> 100

# Test system: UO-31 renal
# Experiment: DTP human tumour cell line panel, 48 h
row,Structure (SMILES),TGI [µM]
1,NP(=O)(Oc1c2occc2cc2ccc(=O)oc12)N(CCCl)CCCl (configuration not stated),> 100
2,CCOC(=O)c1nc2ccc(C(F)(F)F)cc2nc1NCc1cc(OC)c(OC)c(OC)c1,99.5
3,CC(C)(C)OC(=O)NC(Cc1ccc(OCc2ccccc2)cn1)C(=O)N1CCCCC1 (configuration not stated),71.4
4,CCOC(=O)/C=C(/C(=O)OCC)n1ccc(=O)n(Cc2cn(COCCOC(C)=O)nn2)c1=O,31.9
5,O=C1CC(=Nc2ccc(Cl)cc2)C(c2ccccc2)N1c1ccccc1 (configuration not stated),> 100
6,C=CC(CCc1ccc(C(=O)OCC)cc1)c1c(N)nc(N)[nH]c1=O (configuration not stated),> 100
7,CCOP(C)(=O)C(N)Cc1ccc(OC)c(OC)c1 (configuration not stated),> 100

# Test system: A498 renal
# Experiment: DTP human tumour cell line panel, 48 h
row,Structure (SMILES),TGI [µM]
1,NP(=O)(Oc1c2occc2cc2ccc(=O)oc12)N(CCCl)CCCl (configuration not stated),> 100
2,CCOC(=O)c1nc2ccc(C(F)(F)F)cc2nc1NCc1cc(OC)c(OC)c(OC)c1,> 100
3,CC(C)(C)OC(=O)NC(Cc1ccc(OCc2ccccc2)cn1)C(=O)N1CCCCC1 (configuration not stated),> 100
4,CCOC(=O)/C=C(/C(=O)OCC)n1ccc(=O)n(Cc2cn(COCCOC(C)=O)nn2)c1=O,56.1
5,O=C1CC(=Nc2ccc(Cl)cc2)C(c2ccccc2)N1c1ccccc1 (configuration not stated),> 100
6,C=CC(CCc1ccc(C(=O)OCC)cc1)c1c(N)nc(N)[nH]c1=O (configuration not stated),> 100
7,CCOP(C)(=O)C(N)Cc1ccc(OC)c(OC)c1 (configuration not stated),> 100

# Test system: SF-268 CNS
# Experiment: DTP human tumour cell line panel, 48 h
row,Structure (SMILES),TGI [µM]
1,NP(=O)(Oc1c2occc2cc2ccc(=O)oc12)N(CCCl)CCCl (configuration not stated),> 100
2,CCOC(=O)c1nc2ccc(C(F)(F)F)cc2nc1NCc1cc(OC)c(OC)c(OC)c1,> 100
3,CC(C)(C)OC(=O)NC(Cc1ccc(OCc2ccccc2)cn1)C(=O)N1CCCCC1 (configuration not stated),> 100
4,CCOC(=O)/C=C(/C(=O)OCC)n1ccc(=O)n(Cc2cn(COCCOC(C)=O)nn2)c1=O,33.5
5,O=C1CC(=Nc2ccc(Cl)cc2)C(c2ccccc2)N1c1ccccc1 (configuration not stated),> 100
6,C=CC(CCc1ccc(C(=O)OCC)cc1)c1c(N)nc(N)[nH]c1=O (configuration not stated),> 100
7,CCOP(C)(=O)C(N)Cc1ccc(OC)c(OC)c1 (configuration not stated),> 100

# Test system: NCI-H522 lung
# Experiment: DTP human tumour cell line panel, 48 h
row,Structure (SMILES),TGI [µM]
1,NP(=O)(Oc1c2occc2cc2ccc(=O)oc12)N(CCCl)CCCl (configuration not stated),> 100
2,CCOC(=O)c1nc2ccc(C(F)(F)F)cc2nc1NCc1cc(OC)c(OC)c(OC)c1,> 100
3,CC(C)(C)OC(=O)NC(Cc1ccc(OCc2ccccc2)cn1)C(=O)N1CCCCC1 (configuration not stated),> 100
4,CCOC(=O)/C=C(/C(=O)OCC)n1ccc(=O)n(Cc2cn(COCCOC(C)=O)nn2)c1=O,16
5,O=C1CC(=Nc2ccc(Cl)cc2)C(c2ccccc2)N1c1ccccc1 (configuration not stated),7.22
6,CCOP(C)(=O)C(N)Cc1ccc(OC)c(OC)c1 (configuration not stated),> 100

# Test system: HOP-92 NSCLC
# Experiment: DTP human tumour cell line panel, 48 h
row,Structure (SMILES),TGI [µM]
1,NP(=O)(Oc1c2occc2cc2ccc(=O)oc12)N(CCCl)CCCl (configuration not stated),> 100
2,CCOC(=O)c1nc2ccc(C(F)(F)F)cc2nc1NCc1cc(OC)c(OC)c(OC)c1,> 100
3,CC(C)(C)OC(=O)NC(Cc1ccc(OCc2ccccc2)cn1)C(=O)N1CCCCC1 (configuration not stated),> 100
4,CCOC(=O)/C=C(/C(=O)OCC)n1ccc(=O)n(Cc2cn(COCCOC(C)=O)nn2)c1=O,5.04
5,O=C1CC(=Nc2ccc(Cl)cc2)C(c2ccccc2)N1c1ccccc1 (configuration not stated),54.6
6,C=CC(CCc1ccc(C(=O)OCC)cc1)c1c(N)nc(N)[nH]c1=O (configuration not stated),83.8
7,CCOP(C)(=O)C(N)Cc1ccc(OC)c(OC)c1 (configuration not stated),> 100

# Test system: SF-539 CNS
# Experiment: DTP human tumour cell line panel, 48 h
row,Structure (SMILES),TGI [µM]
1,NP(=O)(Oc1c2occc2cc2ccc(=O)oc12)N(CCCl)CCCl (configuration not stated),> 100
2,CCOC(=O)c1nc2ccc(C(F)(F)F)cc2nc1NCc1cc(OC)c(OC)c(OC)c1,> 100
3,CC(C)(C)OC(=O)NC(Cc1ccc(OCc2ccccc2)cn1)C(=O)N1CCCCC1 (configuration not stated),> 100
4,CCOC(=O)/C=C(/C(=O)OCC)n1ccc(=O)n(Cc2cn(COCCOC(C)=O)nn2)c1=O,34.5
5,O=C1CC(=Nc2ccc(Cl)cc2)C(c2ccccc2)N1c1ccccc1 (configuration not stated),94.8
6,C=CC(CCc1ccc(C(=O)OCC)cc1)c1c(N)nc(N)[nH]c1=O (configuration not stated),> 100
7,CCOP(C)(=O)C(N)Cc1ccc(OC)c(OC)c1 (configuration not stated),> 100

# Test system: ACHN renal
# Experiment: DTP human tumour cell line panel, 48 h
row,Structure (SMILES),TGI [µM]
1,NP(=O)(Oc1c2occc2cc2ccc(=O)oc12)N(CCCl)CCCl (configuration not stated),> 100
2,CCOC(=O)c1nc2ccc(C(F)(F)F)cc2nc1NCc1cc(OC)c(OC)c(OC)c1,> 100
3,CC(C)(C)OC(=O)NC(Cc1ccc(OCc2ccccc2)cn1)C(=O)N1CCCCC1 (configuration not stated),> 100
4,CCOC(=O)/C=C(/C(=O)OCC)n1ccc(=O)n(Cc2cn(COCCOC(C)=O)nn2)c1=O,28
5,O=C1CC(=Nc2ccc(Cl)cc2)C(c2ccccc2)N1c1ccccc1 (configuration not stated),> 100
6,CCOP(C)(=O)C(N)Cc1ccc(OC)c(OC)c1 (configuration not stated),> 100

# Test system: M14 melanoma
# Experiment: DTP human tumour cell line panel, 48 h
row,Structure (SMILES),TGI [µM]
1,NP(=O)(Oc1c2occc2cc2ccc(=O)oc12)N(CCCl)CCCl (configuration not stated),> 100
2,CCOC(=O)c1nc2ccc(C(F)(F)F)cc2nc1NCc1cc(OC)c(OC)c(OC)c1,> 100
3,CC(C)(C)OC(=O)NC(Cc1ccc(OCc2ccccc2)cn1)C(=O)N1CCCCC1 (configuration not stated),> 100
4,O=C1CC(=Nc2ccc(Cl)cc2)C(c2ccccc2)N1c1ccccc1 (configuration not stated),33.8
5,C=CC(CCc1ccc(C(=O)OCC)cc1)c1c(N)nc(N)[nH]c1=O (configuration not stated),> 100
6,CCOP(C)(=O)C(N)Cc1ccc(OC)c(OC)c1 (configuration not stated),> 100

# Test system: MDA-MB-435
# Experiment: DTP human tumour cell line panel, 48 h
row,Structure (SMILES),TGI [µM]
1,NP(=O)(Oc1c2occc2cc2ccc(=O)oc12)N(CCCl)CCCl (configuration not stated),> 100
2,CCOC(=O)c1nc2ccc(C(F)(F)F)cc2nc1NCc1cc(OC)c(OC)c(OC)c1,> 100
